This experiment concerns the target T1, Recombinant human TPH1 (MBP tagged) (Homo sapiens, UniProt P17752).
T1 construct: cloning full length human TPH1 cDNA in to a bacterial pMAL-c5E expression vector; made in house; host or cells: E. coli BL21 (DE3)
T1 sequence (P17752 1-444): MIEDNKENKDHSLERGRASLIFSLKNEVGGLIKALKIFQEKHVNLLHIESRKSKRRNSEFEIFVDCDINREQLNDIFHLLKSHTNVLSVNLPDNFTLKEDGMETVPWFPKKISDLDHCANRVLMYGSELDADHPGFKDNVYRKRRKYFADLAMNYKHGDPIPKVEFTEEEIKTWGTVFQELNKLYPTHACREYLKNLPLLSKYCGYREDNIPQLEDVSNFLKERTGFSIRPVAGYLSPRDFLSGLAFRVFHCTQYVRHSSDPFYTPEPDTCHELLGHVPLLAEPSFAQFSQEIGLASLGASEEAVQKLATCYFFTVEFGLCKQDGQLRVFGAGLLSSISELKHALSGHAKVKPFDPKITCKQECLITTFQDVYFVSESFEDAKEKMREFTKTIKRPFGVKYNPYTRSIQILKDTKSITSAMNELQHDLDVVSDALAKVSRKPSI
Description: TPH1 in vitro inhibition assay (kinetic fluorescence). The experiment is classed as biochemical. In short, it runs like this: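 Final mix: 15 nM MBP-TPH1, 30 μM Trp, 36 μM 6-methyltetrahydropterin, 25 μM ferrous ammonium sulfate, 50 mM MES pH 7.1, 1% DMSO, room temperature.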

Where [1] appears, read: TPH1 Range (TPH1 inhibition IC50).
Setting [2] is: read-out: TPH1 Range (TPH1 inhibition IC50).

This passage reports IC50 results from patent publication US11759462B2, “Spirocyclic compounds as tryptophan hydroxylase inhibitors” (priority 2013, dated 2023).

Read-outs that look alike come from different tables or passages of the source.

For the molecule `Nc1nc(O[C@H](c2ccc(Cl)cc2-c2ccc(S(N)(=O)=O)cc2)C(F)(F)F)cc(N2CCC3(CC2)CN[C@H](C(=O)O)C3)n1` [Example 34ae, (S)-8-(2-amino-6-((R)-1-(5-chloro-4′-sulfamoyl-[1,1′-biphenyl]-2-yl)-2,2,2-trifluoroethoxy)pyrimidin-4-yl)-2,8-diazaspiro[4.5]decane-3-carboxylic acid], the IC50 under setting [1] lay in the range of 300 to 3000 nM.

With `Nc1nc(O[C@H](c2ccc(Cl)cc2-c2ccc(Cl)c(F)c2)C(F)(F)F)cc(N2CCC3(CC2)CN[C@H](C(=O)O)C3)n1` [Example 34af, (S)-8-(2-amino-6-((R)-1-(4′,5-dichloro-3′-fluoro-[1,1′-biphenyl]-2-yl)-2,2,2-trifluoroethoxy)pyrimidin-4-yl)-2,8-diazaspiro[4.5]decane-3-carboxylic acid], under setting [2], the half-maximal inhibitory concentration (IC50) is below 50 nM.

For the molecule `CC(C)Oc1cccc(-c2cc(Cl)ccc2[C@@H](Oc2cc(N3CCC4(CC3)CN[C@H](C(=O)O)C4)nc(N)n2)C(F)(F)F)c1` [Example 34ag, (S)-8-(2-amino-6-((R)-1-(5-chloro-3′-isopropoxy-[1,1′-biphenyl]-2-yl)-2,2,2-trifluoroethoxy)pyrimidin-4-yl)-2,8-diazaspiro[4.5]decane-3-carboxylic acid], the IC50 under setting [2] was below 50 nM.

Consider `CCOc1cccc(-c2cc(Cl)ccc2[C@@H](Oc2cc(N3CCC4(CC3)CN[C@H](C(=O)O)C4)nc(N)n2)C(F)(F)F)c1` [Example 34ah, (S)-8-(2-amino-6-((R)-1-(5-chloro-3′-ethoxy-[1,1′-biphenyl]-2-yl)-2,2,2-trifluoroethoxy)pyrimidin-4-yl)-2,8-diazaspiro[4.5]decane-3-carboxylic acid], for which, under setting [2], the IC50 was below 50 nM.

In the case of `CCOc1ccc(-c2cc(Cl)ccc2[C@@H](Oc2cc(N3CCC4(CC3)CN[C@H](C(=O)O)C4)nc(N)n2)C(F)(F)F)cc1Cl` [Example 34ai, (S)-8-(2-amino-6-((R)-1-(3′,5-dichloro-4′-ethoxy-[1,1′-biphenyl]-2-yl)-2,2,2-trifluoroethoxy)pyrimidin-4-yl)-2,8-diazaspiro[4.5]decane-3-carboxylic acid], the IC50 under setting [1] is 50 to 300 nM.

With `Cc1ccc(-c2cc(Cl)ccc2[C@@H](Oc2cc(N3CCC4(CC3)CN[C@H](C(=O)O)C4)nc(N)n2)C(F)(F)F)cc1Cl` [Example 34aj, (S)-8-(2-amino-6-((R)-1-(3′,5-dichloro-4′-methyl-[1,1′-biphenyl]-2-yl)-2,2,2-trifluoroethoxy)pyrimidin-4-yl)-2,8-diazaspiro[4.5]decane-3-carboxylic acid], the IC50 under setting [2] lay in the range of 50 to 300 nM.

Consider `CC(C)Oc1ccc(-c2cc(Cl)ccc2[C@@H](Oc2cc(N3CCC4(CC3)CN[C@H](C(=O)O)C4)nc(N)n2)C(F)(F)F)cc1Cl` [Example 34ak, (S)-8-(2-amino-6-((R)-1-(3′,5-dichloro-4′-isopropoxy-[1,1′-biphenyl]-2-yl)-2,2,2-trifluoroethoxy)pyrimidin-4-yl)-2,8-diazaspiro[4.5]decane-3-carboxylic acid], for which, under setting [2], the IC50 is 50 to 300 nM.

As to `CC(C)Oc1ccc(-c2cc(Cl)ccc2[C@@H](Oc2cc(N3CCC4(CC3)CN[C@H](C(=O)O)C4)nc(N)n2)C(F)(F)F)cc1F` [Example 34al, (S)-8-(2-amino-6-((R)-1-(5-chloro-3′-fluoro-4′-isopropoxy-[1,1′-biphenyl]-2-yl)-2,2,2-trifluoroethoxy)pyrimidin-4-yl)-2,8-diazaspiro[4.5]decane-3-carboxylic acid], the IC50 under setting [2] was in the range of 3000 to 10000 nM.

With `Nc1nc(O[C@H](c2ccc(Cl)cc2-c2ccc(Cl)c(C(F)(F)F)c2)C(F)(F)F)cc(N2CCC3(CC2)CN[C@H](C(=O)O)C3)n1` [Example 34am, (S)-8-(2-amino-6-((R)-1-(4′,5-dichloro-3′-(trifluoromethyl)-[1,1′-biphenyl]-2-yl)-2,2,2-trifluoroethoxy)pyrimidin-4-yl)-2,8-diazaspiro[4.5]decane-3-carboxylic acid], the IC50 under setting [2] fell in the range of 50 to 300 nM.

As to `Nc1nc(O[C@H](c2ccc(Cl)cc2-c2cc(F)cc(Cl)c2)C(F)(F)F)cc(N2CCC3(CC2)CN[C@H](C(=O)O)C3)n1` [Example 34an, (S)-8-(2-amino-6-((R)-1-(3′,5-dichloro-5′-fluoro-[1,1′-biphenyl]-2-yl)-2,2,2-trifluoroethoxy)pyrimidin-4-yl)-2,8-diazaspiro[4.5]decane-3-carboxylic acid], the IC50 under setting [1] is below 50 nM.

Consider `CC(C)(C)c1cccc(-c2cc(Cl)ccc2[C@@H](Oc2cc(N3CCC4(CC3)CN[C@H](C(=O)O)C4)nc(N)n2)C(F)(F)F)c1` [Example 34ao, (S)-8-(2-amino-6-((R)-1-(3′-(tert-butyl)-5-chloro-[1,1′-biphenyl]-2-yl)-2,2,2-trifluoroethoxy)pyrimidin-4-yl)-2,8-diazaspiro[4.5]decane-3-carboxylic acid], for which the 50% inhibitory concentration (IC50) under setting [1] was below 50 nM.

As to `Nc1nc(O[C@H](c2ccc(Cl)cc2-c2cc(Cl)cc(C(F)(F)F)c2)C(F)(F)F)cc(N2CCC3(CC2)CN[C@H](C(=O)O)C3)n1` [Example 34ap, (S)-8-(2-amino-6-((R)-1-(3′,5-dichloro-5′-(trifluoromethyl)-[1,1′-biphenyl]-2-yl)-2,2,2-trifluoroethoxy)pyrimidin-4-yl)-2,8-diazaspiro[4.5]decane-3-carboxylic acid], under setting [2], the IC50 was 50 to 300 nM.

Turning to `Nc1nc(O[C@H](c2ccc(Cl)cc2-c2cc(F)cc(C(F)(F)F)c2)C(F)(F)F)cc(N2CCC3(CC2)CN[C@H](C(=O)O)C3)n1` [Example 34aq, (S)-8-(2-amino-6-((R)-1-(5-chloro-3′-fluoro-5′-(trifluoromethyl)-[1,1′-biphenyl]-2-yl)-2,2,2-trifluoroethoxy)pyrimidin-4-yl)-2,8-diazaspiro[4.5]decane-3-carboxylic acid], the IC50 under setting [2] is below 50 nM.

In the case of `Nc1nc(O[C@H](c2ccc(Cl)cc2-c2cccc(F)c2)C(F)(F)F)cc(N2CCC3(CC2)CN[C@H](C(=O)O)C3)n1` [Example 34as, (S)-8-(2-amino-6-((R)-1-(5-chloro-3′-fluoro-[1,1′-biphenyl]-2-yl)-2,2,2-trifluoroethoxy)pyrimidin-4-yl)-2,8-diazaspiro[4.5]decane-3-carboxylic acid], under setting [1], the half-maximal inhibitory concentration (IC50) was below 50 nM.

With `Cc1cc(-c2cc(Cl)ccc2[C@@H](Oc2cc(N3CCC4(CC3)CN[C@H](C(=O)O)C4)nc(N)n2)C(F)(F)F)ccc1Cl` [Example 34at, (S)-8-(2-amino-6-((R)-1-(4′,5-dichloro-3′-methyl-[1,1′-biphenyl]-2-yl)-2,2,2-trifluoroethoxy)pyrimidin-4-yl)-2,8-diazaspiro[4.5]decane-3-carboxylic acid], the IC50 under setting [1] was 50 to 300 nM.

In the case of `Nc1nc(O[C@H](c2ccc(Cl)cc2-c2cc(F)cc(F)c2)C(F)(F)F)cc(N2CCC3(CC2)CN[C@H](C(=O)O)C3)n1` [Example 34au, (S)-8-(2-amino-6-((R)-1-(5-chloro-3′,5′-difluoro-[1,1′-biphenyl]-2-yl)-2,2,2-trifluoroethoxy)pyrimidin-4-yl)-2,8-diazaspiro[4.5]decane-3-carboxylic acid], the IC50 under setting [1] is below 50 nM.

Turning to `Nc1nc(O[C@H](c2ccc(Cl)cc2-c2ccc(F)c(Cl)c2)C(F)(F)F)cc(N2CCC3(CC2)CN[C@H](C(=O)O)C3)n1` [Example 34av, (S)-8-(2-amino-6-((R)-1-(3′,5-dichloro-4′-fluoro-[1,1′-biphenyl]-2-yl)-2,2,2-trifluoroethoxy)pyrimidin-4-yl)-2,8-diazaspiro[4.5]decane-3-carboxylic acid], the IC50 under setting [2] was below 50 nM.

As for `Nc1nc(O[C@H](c2ccc(Cl)cc2-c2ccc(F)c(F)c2)C(F)(F)F)cc(N2CCC3(CC2)CN[C@H](C(=O)O)C3)n1` [Example 34aw, (S)-8-(2-amino-6-((R)-1-(5-chloro-3′,4′-difluoro-[1,1′-biphenyl]-2-yl)-2,2,2-trifluoroethoxy)pyrimidin-4-yl)-2,8-diazaspiro[4.5]decane-3-carboxylic acid], the IC50 under setting [1] was below 50 nM.

Regarding `Nc1nc(O[C@H](c2ccc(Cl)cc2-c2ccc(C(F)(F)F)c(Cl)c2)C(F)(F)F)cc(N2CCC3(CC2)CN[C@H](C(=O)O)C3)n1` [Example 34ax, (S)-8-(2-amino-6-((R)-1-(3′,5-dichloro-4′-(trifluoromethyl)-[1,1′-biphenyl]-2-yl)-2,2,2-trifluoroethoxy)pyrimidin-4-yl)-2,8-diazaspiro[4.5]decane-3-carboxylic acid], under setting [2], the IC50 lay within 50 to 300 nM.

As to `Cc1ccc(-c2cc(Cl)ccc2[C@@H](Oc2cc(N3CCC4(CC3)CN[C@H](C(=O)O)C4)nc(N)n2)C(F)(F)F)cc1C` [Example 34ay, (S)-8-(2-amino-6-((R)-1-(5-chloro-3′,4′-dimethyl-[1,1′-biphenyl]-2-yl)-2,2,2-trifluoroethoxy)pyrimidin-4-yl)-2,8-diazaspiro[4.5]decane-3-carboxylic acid], the IC50 under setting [2] was 50 to 300 nM.

With `CCOc1ccc(-c2cc(Cl)ccc2[C@@H](Oc2cc(N3CCC4(CC3)CN[C@H](C(=O)O)C4)nc(N)n2)C(F)(F)F)cc1F` [Example 34az, (S)-8-(2-amino-6-((R)-1-(5-chloro-4′-ethoxy-3′-fluoro-[1,1′-biphenyl]-2-yl)-2,2,2-trifluoroethoxy)pyrimidin-4-yl)-2,8-diazaspiro[4.5]decane-3-carboxylic acid], the IC50 under setting [2] was 300 to 3000 nM.
